Results: patent publication US9988371B2, “Benzimidazole analogues and related methods” (The Arizona Board of Regents, on Behalf of the University …, priority 2014, dated 2018)
pIC50: −log10 of the molar value.

What was measured:
VEGFR2 = VEGFR2 (Homo sapiens, UniProt P35968); test: VEGFR2 biochemical assay; conditions: exact potency beyond measurable limit
Procedure: Suitable screening assays for RET and VEGFR2 small molecule kinase inhibitors (from a kinase-directed fragment (KDF) library) were established. The RET kinase assay utilizes an EZ Reader Electrophoresis Mobility Chip Instrument (Caliper Life Science). In the assay, 2 nM recombinant RET enzyme (Invitrogen) is pre-incubated with a small molecule inhibitor or control buffer for 30 min to allow the Type-II kinase inhibitor to trap the DFG-out conformation to which the inhibitors bind. This class of inhibitors is indirectly competitive with ATP, and slow binding kinetics (low kd) allow the inhibitors to appear non-competitive and pseudo-irreversible in nature. Because of the non-competitive nature of these inhibitors, a more biologically relevant concentration of ATP substrate (200 μM) was incorporated in this assay. After 30 min of pre-incubation, a substrate mix containing […], 20 mM MgCl2 and 1.5 μM fluorescently labeled RET substrate peptide (Caliper LS, peptide 22; Perkin Elmer, USA) was added. The conversion level of the RET substrate peptide was then determined utilizing the EZ Reader instrument. Similarly, VEGFR2 and RET/V804M kinase assays have also been established using the same peptide substrate.
The VEGFR-2 assay was identical to the RET assay except that 1-2 nM recombinant VEGFR-2 was used instead of RET.

[1] = system: TT cells (MTC, RET/C634W); test: Growth curve proliferation assay, TT cells; type: cell-based; conditions: Homo sapiens, last day of growth curves
Procedure: FIG. 5: Effects exerted by indicated concentrations of Pz-1 or vehicle (NT: not treated) on proliferation of TT (human MTC cell line expressing RET/C634W), Lc-2/ad (human NSCLC expressing CCDC6-RET) and Nthy-ori-3-1 (thyroid non-transformed) cell lines. Data are the mean±SD (Standard Deviation) of one experiment performed in triplicate. Bottom, right) Growth inhibition IC50 of Pz-1 for the different cell lines: 95% CI (confidence intervals) are indicated in brackets. Cells were seeded in triplicate in 60-mm dishes and kept in 5% (Nthy-ori-3-1) or 10% (TT and Lc-2/ad) fetal calf serum. The day after plating, different concentrations of Pz-1 or vehicle were added to the medium and changed every 2-3 days. Cells were counted every 2-3 days and cell numbers were reported±SD (Standard Deviation). IC50 doses (with Confidence Intervals) were calculated through a curve fitting analysis from the last day of growth curves using the PRIZM software program (Graphpad Software Inc).
Nthy-ory-3-1 and TTcells were seeded in 60-mm dishes. […] Cells were counted every 2-3 days. […] Parental and RET/PTC-expressing Ba/F3 were kept in 10% fetal calf serum in 6-multi wells and counted every day for 4 consecutive days, changing media every 2 days. […] IC50 doses were calculated through a curve fitting analysis from the last day of growth curves using the PRISM software program (Graphpad Software Inc). […]

VEGFR2, sequence (P35968 834-1162 limits assumed): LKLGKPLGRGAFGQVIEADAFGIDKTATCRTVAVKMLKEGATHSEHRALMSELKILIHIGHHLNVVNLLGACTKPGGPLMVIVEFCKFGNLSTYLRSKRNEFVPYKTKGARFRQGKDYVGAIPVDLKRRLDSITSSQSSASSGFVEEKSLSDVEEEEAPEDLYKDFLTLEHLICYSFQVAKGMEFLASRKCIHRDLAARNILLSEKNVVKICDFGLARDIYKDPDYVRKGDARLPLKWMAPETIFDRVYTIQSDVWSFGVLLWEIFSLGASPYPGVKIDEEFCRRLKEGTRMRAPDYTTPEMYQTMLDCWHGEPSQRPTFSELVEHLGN

For `Cn1cc(-c2ccc3c(c2)ncn3-c2ccc(CC(=O)Nc3cc(C(C)(C)C)on3)cc2)cn1` [Pz-1, N-(5-(tert-butyl)isoxazol-3-yl)-2-(4-(5-(1-methyl-1H-pyrazol-4-yl)-1H-benzo[d]imidazol-1-yl)phenyl)acetamide], the pIC50 (VEGFR2) was > 9.00 and the pIC50 [1] was 8.73.
